According to PubChem BioAssay (NCI):
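Five concentrations, 48 hours, 96-well plates. The concentration for full growth arrest is given as TGI.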

Key:
Test in all cases: NCI-60 cell line screen, 48 h
[1] = system: A498 renal
[2] = system: CAKI-1 renal
[3] = system: DU-145 prostate
[4] = system: HCT-116 colon
[5] = system: HL-60(TB) leukemia
[6] = system: HS 578T breast
[7] = system: LOX IMVI melanoma
[8] = system: SK-MEL-5 melanoma
[9] = system: SN12C renal
[10] = system: SW-620 colon
[11] = system: U251 CNS
[12] = system: BT-549 breast

Row | Compound | TGI [1] | TGI [2] | TGI [3] | TGI [4] | TGI [5] | TGI [6] | TGI [7] | TGI [8] | TGI [9] | TGI [10] | TGI [11] | TGI [12]
1 | O=C1C(NCCc2cc(Br)c(O)c(Br)c2)=CC(=O)c2ncccc21 | 9.88 µM | 25 µM | 12 µM | 12.4 µM | 12.7 µM | 9.2 µM | 8.69 µM | 2.83 µM | 14.7 µM | > 57.7 µM | 33 µM | 
2 | C1=CCN(c2ccccc2)CC1 | > 100 µM |  |  | > 100 µM | 90.1 µM |  | > 100 µM | > 100 µM | 87 µM | 47.3 µM | > 100 µM | 
3 | Nc1ccc(N=Nc2ccc(/C=C/c3ccc(N=Nc4ccc(N)c5ccc(S(=O)(=O)O)cc45)cc3S(=O)(=O)O)c(S(=O)(=O)O)c2)c2cc(S(=O)(=O)O)ccc12 | > 100 µM |  |  | > 100 µM | > 100 µM |  | > 100 µM | > 100 µM | > 100 µM | > 100 µM | > 100 µM | 
4 | COc1ccc2c(OC)c3ccoc3nc2c1O | > 100 µM | > 100 µM |  | > 100 µM |  |  |  | > 100 µM | > 100 µM | > 100 µM | > 100 µM | 
5 | O=C(CCN(CCO)CCO)Nc1ccc2c(c1)C(=O)c1ccc(NC(=O)CCN(CCO)CCO)cc1C2=O | 37.9 µM | 32.2 µM |  | 33.2 µM | 45.7 µM |  | 56.5 µM | 40.7 µM | > 100 µM | 33.4 µM | > 100 µM | 
6 | CC(=O)c1c2c(cc3c1CC1(Cc4cc5c(cc4C1)CCC5)C3)CCC2 | > 100 µM | > 100 µM | > 100 µM | > 100 µM | > 100 µM | > 100 µM | > 100 µM | > 100 µM |  | > 100 µM | > 100 µM | 
7 | N[C@@H]1C[C@H](N)c2c(Cl)sc(Cl)c21 | > 100 µM | > 100 µM | > 100 µM | > 100 µM |  |  | > 100 µM | > 100 µM | > 100 µM | > 100 µM | > 100 µM | > 100 µM
8 | O=c1nc2n(CCO)c(-c3ccccc3)c(-c3ccccc3)nc-2c(=O)[nH]1 | > 100 µM | > 100 µM | > 100 µM | > 100 µM |  | > 100 µM | > 100 µM | > 100 µM | > 100 µM | > 100 µM | > 100 µM | > 100 µM
9 | CC(=O)OCC(OC(C)=O)C(OC(C)=O)C(/C=N/N(C(C)=O)S(=O)(=O)c1ccc(/C=C2\NC(=O)NC2=O)cc1)OC(C)=O (stereo unspecified) | > 100 µM | > 100 µM | > 100 µM | > 100 µM |  | > 100 µM |  | > 100 µM | > 100 µM | > 100 µM | > 100 µM | > 100 µM
10 | N#Cc1c(-c2ccccc2)c(C#N)c(=O)n(NS(=O)(=O)c2ccccc2)c1O | > 100 µM | > 100 µM |  | > 100 µM | > 100 µM | > 100 µM | > 100 µM | > 100 µM | > 100 µM | > 100 µM | > 100 µM | > 100 µM
11 | CN(C(=O)C1=CCCCCC1)c1ccccc1I | > 100 µM | > 100 µM | > 100 µM | > 100 µM | > 100 µM | 35.5 µM | > 100 µM | > 100 µM | > 100 µM | > 100 µM | > 100 µM | 
